# From patent publication US20250235460A1, “COMBINATION THERAPY USING GLUCOSE-DEPENDENT INSULINOTROPIC POLYPEPTIDE RECEPTOR ANTAGONIST COMPOUNDS AND GLP-1 RECEPTOR AGONIST COMPOUNDS” (Pfizer Inc., priority 2024, published 2025)
# Read-outs that look alike come from different tables or passages of the source.
# Molecular target: T1, human Glucose-dependent Insulinotropic Polypeptide Receptor (hGIPR) (Homo sapiens, UniProt P48546)
# T1 sequence (P48546 22-466): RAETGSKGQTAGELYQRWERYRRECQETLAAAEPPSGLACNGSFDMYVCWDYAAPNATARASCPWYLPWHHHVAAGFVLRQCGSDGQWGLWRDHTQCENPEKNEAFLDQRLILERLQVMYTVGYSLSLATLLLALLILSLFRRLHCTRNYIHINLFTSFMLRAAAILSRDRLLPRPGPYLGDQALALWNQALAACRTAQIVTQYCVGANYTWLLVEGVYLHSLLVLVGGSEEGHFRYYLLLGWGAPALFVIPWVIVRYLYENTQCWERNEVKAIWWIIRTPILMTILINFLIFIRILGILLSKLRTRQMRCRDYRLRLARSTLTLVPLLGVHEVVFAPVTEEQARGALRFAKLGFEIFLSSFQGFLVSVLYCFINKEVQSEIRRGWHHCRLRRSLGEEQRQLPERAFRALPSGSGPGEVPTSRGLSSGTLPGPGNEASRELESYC
# Assay: Functional in vitro GIPR antagonist potency assay (cAMP HTRF, CHO-K1 cells stably expressing hGIPR, hGIP stimulation at EC80)
# Type: cell-based
# Protocol: The functional in vitro antagonist potency for test compounds was determined by monitoring intracellular cyclic adenosine monophosphate (cAMP) levels in Chinese hamster ovary (CHO)—K1 cells stably expressing the human Glucose-dependent Insulinotropic Polypeptide Receptor (hGIPR). Following agonist activation, hGIPR associates with the G-protein complex causing the Gas subunit to exchange bound guanosine diphosphate (GDP) for guanosine triphosphate (GTP), followed by dissociation of the Gas-GTP complex. The activated Gas subunit can couple to downstream effectors to regulate the levels of second messengers or cAMP within the cell. Thereby, determination of intracellular cAMP levels allows for pharmacological characterization. Intracellular cAMP levels are quantitated using a homogenous assay utilizing the Homogeneous Time Resolved Fluorescence (HTRF) technology from Perkin Elmer. […] The two entities compete for binding to a monoclonal anti-cAMP antibody labeled with cryptate. The specific signal is inversely proportional to the concentration of cAMP in the cells.
# Test compounds were solubilized to a concentration of 30 mM in 100% dimethyl sulfoxide (DMSO). An 11-point dilution series using 1 in 3.162-fold serial dilutions was created in 100% DMSO with a top concentration of 8 mM. […]
# Frozen assay-ready vials (at 1×10^7 cells/vial) of CHO-K1 cells stably expressing the Gs-coupled human GIPR receptor (Eurofins, DiscoverX, Cat No. 95-0146C2) were thawed, counted, and resuspended in assay buffer consisting of Hank's Balanced Salt Solution (HBSS, Lonza Cat No. 10-527) containing 20 mM (4-(2-hydroxyethyl)-1-piperazineethanesulfonic acid (HEPES, Lonza, Cat No. 17-737E), 0.1% bovine serum albumin (BSA, Sigma, Cat No. A7979), and 200 μM 3-isobutyl-1-methylxanthine (IBMX, Sigma, Cat No. 15879) at a density of 4×10^5 cells/mL. Cells were added to assay plate (5 μL/well of 4×10^5 cells/mL stock for 2,000 cells/well final) containing 50 nL of 200×FAC test compound, and incubated at 37° C. […] ([…]: 5% CO2), after which intracellular cAMP levels were quantified as per Perkin Elmer's protocol (5 μL of d2 and then 5 μL cryptate, incubated for 1 hour at room temperature). Emission spectra of samples were measured on a Pherastar plate reader (BMG Labtech Inc) using a HTRF protocol (excitation, 320 nm; emission, 665 nm/620 nm).
# ([…]: 5% CO2), with a micro-clime lid. […] ([…]: 5% CO2), after which intracellular cAMP levels were quantified and samples measured as described previously. […]
# Data were analyzed using the ratio of fluorescence intensity at 620 and 665 nm for each well, extrapolated from the cAMP standard curve to express data as nanomolar (nM) cAMP for each well. […]
# [1] = CHO-K1 cells stably expressing human GIPR, inhibition of hGIP (EC80)-stimulated cAMP, 2 h preincubation
IC50 [nM],IC50 [1] [nM],SMILES
10,–,"CC(C)c1ccc(NC(=O)N2CC[C@H](C)[C@@H]2C(=O)Nc2ccc(-c3ccc(C(=O)O)cc3)cc2)cc1 (single isomer, unassigned) [Compound 34A, 4′-{[(3S)-3-Methyl-1-{[4-(propan-2-yl)phenyl]carbamoyl}-D-prolyl]amino}[1,1′-biphenyl]-4-carboxylic acid or 4′-{[(3R)-3-Methyl-1-{[4-(propan-2-yl)phenyl]carbamoyl}-L-prolyl]amino}[1,1′-biphenyl]-4-carboxylic acid]"
–,11,"Cc1cc(NC(=O)N2CCC[C@@H]2C(=O)Nc2ccc(-c3ccc(C(=O)O)nc3)cc2)ccc1C(C)C [Compound 19A, 5-{4-[(1-{[3-Methyl-4-(propan-2-yl)phenyl]carbamoyl}-D-prolyl)amino]phenyl}pyridine-2-carboxylic acid]"
4.6,–,"CC(C)c1ccc(NC(=O)N2CC[C@@H](C)[C@@H]2C(=O)Nc2ccc(-c3ccc(C(=O)O)cc3)cc2)cc1 (single isomer, unassigned) [Compound 35A, 4′-{[(3R)-3-Methyl-1-{[4-(propan-2-yl)phenyl]carbamoyl}-D-prolyl]amino}[1,1′-biphenyl]-4-carboxylic acid or 4′-{[(3S)-3-Methyl-1-{[4-(propan-2-yl)phenyl]carbamoyl}-L-prolyl]amino}[1,1′-biphenyl]-4-carboxylic acid]"
–,7.8,"O=C(O)c1ccc(-c2ccc(NC(=O)[C@H]3CCCN3C(=O)Nc3ccc(C(F)(F)F)cc3)nc2)cc1 [Compound 31A, 4-{6-[(1-{[4-(Trifluoromethyl)phenyl]carbamoyl}-D-prolyl)amino]pyridin-3-yl}benzoic acid]"
